Test results as given in PMC9573813 (Molecular Diversity, 2022).

tested on: L. donovani intramacrophage amastigotes; experiment: not given; type: cell-based, Leishmania donovani; details: CC50 RAW 264.7 / IC50 intramacrophage amastigotes

Compound | SI (CC50/IC50)
Cc1nn(Cc2ccc(O)c(C=O)c2)c(=O)[nH]c1=O [Compound 10, 2-Hydroxy-5-((6-methyl-3,5-dioxo-4,5-dihydro-1,2,4-triazin-2(3H)-yl)methyl) benzaldehyde] | 1.87

tested on: not listed separately; experiment: Cytotoxicity, cell growth; type: cell-based; details: human, human embryonic lung (HEL) fibroblasts

Compound | CC50
Nc1nc(O)c2ncn(COC(CO)CO)c2n1 [Ganciclovir (GCV), Ganciclovir] | > 394 µM
Nc1ccn(C[C@@H](CO)OCP(=O)(O)O)c(=O)n1 [Cidofovir (CDV), Cidofovir] | > 317 µM
Nc1nc2c(ncn2COCCO)c(=O)[nH]1 [Acyclovir (ACV), Acyclovir] | > 444 µM

tested on: not listed separately; experiment: Cytotoxicity evaluation on RAW 264.7 macrophages; type: cell-based; details: mouse

Compound | CC50
Cc1nn(Cc2ccc(O)c(C=O)c2)c(=O)[nH]c1=O [Compound 10, 2-Hydroxy-5-((6-methyl-3,5-dioxo-4,5-dihydro-1,2,4-triazin-2(3H)-yl)methyl) benzaldehyde] | 56.1 ± 16.8 µM
O=Cc1cc(Cn2cc(F)c(=O)[nH]c2=O)ccc1O [Compound 9, 5-((5-Fluoro-2,4-dioxo-3,4-dihydropyrimidin-1(2H)-yl)methyl)-2-hydroxybenzaldehyde] | > 100 µM
O=Cc1cc(Cn2ccc(=O)[nH]c2=O)ccc1O [Compound 7, 5-((2,4-Dioxo-3,4-dihydropyrimidin-1(2H)-yl)methyl)-2-hydroxybenzaldehyde] | > 100 µM
Cc1cn(Cc2ccc(O)c(C=O)c2)c(=O)[nH]c1=O [Compound 8, 2-Hydroxy-5-((5-methyl-2,4-dioxo-3,4-dihydropyrimidin-1(2H)-yl)methyl) benzaldehyde] | > 100 µM
CCCCCCCCCCCCCCCCOP(=O)([O-])OCC[N+](C)(C)C [Miltefosine, reference compound] | 52.2 ± 11.1 µM
